# Data as given in US8829185B2 (Bayer HealthCare LLC, priority 2005, dated 2014).
# Target: T1, FGFR1-GST (Homo sapiens, UniProt P11362)
# T1 construct: GST; made in house
# Assay: FGFR-1 TR-FRET biochemical assay
# Description: FGFR-1 TR-FRET Biochemical Assay
# The FGFR-1 Assay was performed on half well 96-well opaque plates (Costar 3915) in a LANCE format. LANCE is a homogenous time resolved fluormetry based application available through Perkin Elmer. For this assay, 50 uL reactions were set up using: 0.6 uM ATP (Sigma), 25 nM poly GT-biotin (CIS BIO International), 2 nM Eu-labelled phospho-Tyr Ab (PY20 PerkinElmer), 10 nM Streptavidin-APC (Perkin Elmer), 5 nM FGFR1-GST (generated by DRT, Bayer Healthcare), 1% DMSO, 50 mM HEPES pH 7.5, 10 mM MgCl2, 0.1 mM EDTA, 0.015% Brij, 0.1 mg/ml BSA, 0.1% B-mercaptoethanol. All reactions were initiated with the addition of enzyme and were left to incubate for one hour at room temperature. Time-resolved fluorescence was then read on a Perkin Elmer VictorV Multilabel counter. The reading protocol uses an excitation wavelength at 340 nm and emission reads at both 615 and 665 nm. Signal was calculated as a ratio: (Fluorescence at 665 nm/Fluorescence at […])*10000 for each well. The background control used for this assay is the signal produced with all assay components excluding ATP. For IC50 generation, compounds were added prior to the enzyme initiation. A 50-fold stock plate was made with compounds serially diluted 1:5 in a 50% DMSO/50% dH2O solution. A 1 μL addition of the stock to the assay wells gave final compound concentrations ranging from 10 μM −0.128 nM in 1% DMSO. The data were expressed as percent inhibition: % inhibition=100−((Signal with inhibitor-background)/(Signal without inhibitor−background))*100.
# T1 sequence (P11362 22-822): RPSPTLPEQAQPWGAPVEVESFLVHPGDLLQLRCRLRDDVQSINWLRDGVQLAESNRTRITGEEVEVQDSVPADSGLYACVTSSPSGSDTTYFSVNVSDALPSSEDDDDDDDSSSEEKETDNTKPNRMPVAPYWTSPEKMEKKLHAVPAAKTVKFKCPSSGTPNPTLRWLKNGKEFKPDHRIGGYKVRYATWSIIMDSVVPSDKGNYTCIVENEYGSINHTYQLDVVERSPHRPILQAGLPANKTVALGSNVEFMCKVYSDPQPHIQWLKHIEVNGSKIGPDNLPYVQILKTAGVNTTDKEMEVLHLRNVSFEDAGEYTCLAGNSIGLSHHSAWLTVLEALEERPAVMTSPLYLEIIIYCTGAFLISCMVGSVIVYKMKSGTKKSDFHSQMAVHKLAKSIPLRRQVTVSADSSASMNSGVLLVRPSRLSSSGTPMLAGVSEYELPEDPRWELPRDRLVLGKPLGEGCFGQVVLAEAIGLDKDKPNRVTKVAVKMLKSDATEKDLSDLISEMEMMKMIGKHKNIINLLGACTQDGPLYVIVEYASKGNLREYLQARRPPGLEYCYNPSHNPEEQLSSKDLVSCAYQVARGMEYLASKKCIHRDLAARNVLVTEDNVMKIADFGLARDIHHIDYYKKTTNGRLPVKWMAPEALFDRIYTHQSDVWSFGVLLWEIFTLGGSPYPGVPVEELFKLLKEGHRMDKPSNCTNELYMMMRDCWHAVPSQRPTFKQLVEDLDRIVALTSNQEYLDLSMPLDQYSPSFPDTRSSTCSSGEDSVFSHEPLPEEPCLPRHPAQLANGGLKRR
Structure (SMILES),IC50 (bounds given in nM) [nM],IC50 (upper bound in μM) [nM]
"CC(=O)N1CCN(Cc2c(-c3cnco3)c(-c3ccc(NC(=O)Nc4cc(C(F)(F)F)ccc4F)cc3)c3c(N)ncnn23)CC1 [Example 32, N-4-[7-[(4-acetylpiperazin-1-yl)methyl]-4-amino-6-(1,3-oxazol-5-yl)pyrrolo[2,1-f][1,2,4]triazin-5-yl]phenyl-N′-[2-fluoro-5-(trifluoromethyl)phenyl]urea]",< 10,
"Cc1cc(-c2c(C)c(CN3CCOCC3)n3ncnc(N)c23)ccc1NC(=O)Nc1cc(C(F)(F)F)ccn1 [Example 119, N-{4-[4-amino-6-methyl-7-(morpholin-4-ylmethyl)pyrrolo[2,1-f][1,2,4]triazin-5-yl]-2-methylphenyl}-N′-[4-(trifluoromethyl)pyridin-2-yl]urea]",< 10,
"COCc1c(-c2ccc(NC(=O)Nc3cc(C(F)(F)F)ccc3F)c(F)c2)c2c(N)ncnn2c1C1CCN(C(=O)N(C)C)CC1 [Example 150, 4-{4-amino-5-[3-fluoro-4-({[2-fluoro-5-(trifluoromethyl)-phenyl]carbamoyl}amino)phenyl]-6-(methoxymethyl)-pyrrolo[2,1f][1,2,4]-triazin-7-yl}-N,N-dimethylpiperidine-1-carboxamide]",> 100,< 1000
"COCc1c(-c2ccc(NC(=O)Nc3cc(C(F)(F)F)ccn3)cc2)c2c(N)ncnn2c1CN1CCN(C(C)=O)CC1 [Example 37, N-4-[7-[(4-acetylpiperazin-1-yl)methyl]-4-amino-6-(methoxy-methyl)pyrrolo[2,1-f][1,2,4]triazin-5-yl]phenyl-N′-[4-(trifluoromethyl)pyridin-2-yl]urea]",10 to 100,
"COCc1c(-c2ccc(NC(=O)Nc3cc(C(F)(F)F)ccc3F)c(F)c2)c2c(N)ncnn2c1CN1CCOC(CO)C1 (centres unmarked) [Example 47, N-{4-[4-amino-7-{[2-(hydroxymethyl)morpholin-4-yl]methyl}-6-(methoxymethyl)pyrrolo[2,1-f][1,2,4]triazin-5-yl]-2-fluorophenyl}-N′-[2-fluoro-5-(trifluoromethyl)-phenyl]urea]",10 to 100,
"Nc1ncnn2c(CN3CCOCC3)c(-c3cnco3)c(-c3ccc(NC(=O)Nc4cc(F)cc(C(F)(F)F)c4)cc3)c12 [Example 29, N-4-[4-amino-7-(morpholin-4-ylmethyl)-6-(1,3-oxazol-5-yl)pyrrolo[2,1-f][1,2,4]triazin-5-yl]phenyl-N′-[3-fluoro-5-(trifluoromethyl)phenyl]urea]",< 10,
"Nc1ncnn2c(CN3CCOCC3)c(Cl)c(-c3ccc(NC(=O)Nc4cc(C(F)(F)F)ccc4F)cc3)c12 [Example 154, N-{4-[4-amino-6-chloro-7-(morpholin-4-ylmethyl)pyrrolo[2,1-f][1,2,4]triazin-5-yl]phenyl}-N′-[2-fluoro-5-(trifluoromethyl)phenyl]urea]",< 10,
"Cc1cc(-c2c(C)c(CN3CCCOCC3)n3ncnc(N)c23)ccc1NC(=O)Nc1cc(C(F)(F)F)ccc1F [Example 126, 1-{4-[4-amino-6-methyl-7-(1,4-oxazepan-4-ylmethyl)pyrrolo[2,1-f][1,2,4]triazin-5-yl]-2-methylphenyl}-3-[2-fluoro-5-(trifluoromethyl)-phenyl]urea]",< 10,
"COCc1c(-c2ccc(NC(=O)Nc3cc(C(F)(F)F)ccc3Cl)c(F)c2)c2c(N)ncnn2c1CN1CCOCC1 [Example 142, N-{4-[4-amino-6-(methoxymethyl)-7-(morpholin-4-ylmethyl)-pyrrolo[2,1-f][1,2,4]triazin-5-yl]-2-fluorophenyl}-N′-[2-chloro-5-(trifluoromethyl)phenyl]urea]",10 to 100,
"N#CCc1c(-c2ccc(NC(=O)Nc3cc(C(F)(F)F)ccc3F)cc2)c2c(N)ncnn2c1CN1CCNCC1 [Example 75, N-(4-{4-amino-6-(cyanomethyl)-7-(piperazin-1-ylmethyl)pyrrolo[2,1-f][1,2,4]triazin-5-yl}phenyl)-N′-[2-fluoro-5-(trifluoromethyl)phenyl]urea]",< 10,

# The remaining lines, values ahead:
IC50 (bounds given in nM) [nM],IC50 (upper bound in μM) [nM],Structure (SMILES)
10 to 100,,"CCC(=O)c1c(-c2ccc(NC(=O)Nc3cc(C(F)(F)F)ccn3)cc2)c2c(N)ncnn2c1CN1CCOCC1 [Example 90, N-{4-[4-amino-7-(morpholin-4-ylmethyl)-6-propionylpyrrolo[2,1-f][1,2,4]triazin-5-yl]phenyl}-N′-[4-(trifluoromethyl)-pyridin-2-yl]urea]"
10 to 100,,"COCc1c(-c2ccc(NC(=O)Nc3cc(C(F)(F)F)ccc3F)cc2)c2c(N)ncnn2c1CN1CCCC1 [Example 14, N-{4-[4-amino-6-(methoxymethyl)-7-(pyrrolidin-1-ylmethyl)pyrrolo[2,1-f][1,2,4]triazin-5-yl]phenyl}-N′-[2-fluoro-5-(trifluoromethyl)phenyl]urea]"
10 to 100,,"CC(=O)c1c(-c2ccc(NC(=O)Nc3ccc(OC(F)(F)F)cc3)c(F)c2)c2c(N)ncnn2c1CN1CCOCC1 [Example 59, N-4-[6-acetyl-4-amino-7-(morpholin-4-ylmethyl)pyrrolo[2,1-f][1,2,4]triazin-5-yl]-2-fluorophenyl-N′-[4-(trifluoromethoxy)phenyl]urea]"
> 100,< 1000,"COCCNCc1c(-c2ccc(NC(=O)Nc3cc(C(F)(F)F)ccc3F)cc2)c2c(N)ncnn2c1CN1CCOCC1 [Example 108, N-4-[4-amino-6-[(2-methoxyethyl)amino]methyl-7-(morpholin-4-ylmethyl)pyrrolo[2,1-f][1,2,4]triazin-5-yl]phenyl-N′-[2-fluoro-5-(trifluoromethyl)phenyl]urea]"
< 10,,"COCc1c(-c2ccc(NC(=O)Nc3cc(C(C)(C)C)ccn3)c(F)c2)c2c(N)ncnn2c1CN1CCOCC1 [Example 135, N-{4-[4-amino-6-(methoxymethyl)-7-(morpholin-4-ylmethyl)-pyrrolo[2,1-f][1,2,4]triazin-5-yl]-2-fluorophenyl}-N′-(4-tert-butylpyridin-2-yl)urea]"
< 10,,"N#CCc1c(-c2ccc(NC(=O)Nc3cc(C(F)(F)F)ccc3F)cc2)c2c(N)ncnn2c1CN1CCNC(=O)C1 [Example 70, N-(4-{4-amino-6-(cyanomethyl)-7-[(3-oxopiperazin-1-yl)methyl]pyrrolo[2,1-f][1,2,4]triazin-5-yl}phenyl)-N′-[2-fluoro-5-(trifluoromethyl)phenyl]urea]"
10 to 100,,"Nc1ncnn2c(CN3CCOCC3)c(C(F)F)c(-c3ccc(NC(=O)Nc4cc(C(F)(F)F)ccc4F)c(F)c3)c12 [Example 99, N-{4-[4-amino-6-(difluoromethyl)-7-(morpholin-4-ylmethyl)-pyrrolo[2,1-f][1,2,4]triazin-5-yl]-2-fluorophenyl}-N′-[2-fluoro-5-(trifluoromethyl)phenyl]urea]"
> 100,< 1000,"CC(C)(C)C(=O)c1c(-c2ccc(NC(=O)Nc3cc(C(F)(F)F)ccn3)cc2)c2c(N)ncnn2c1CN1CCOCC1 [Example 92, N-{4-[4-amino-6-(2,2-dimethylpropanoyl)-7-(morpholin-4-ylmethyl)pyrrolo[2,1-f][1,2,4]triazin-5-yl]phenyl}-N′-[4-(trifluoromethyl)-pyridin-2-yl]urea]"
< 10,,"Nc1ncnn2c(CN3CCOCC3)c(-c3cnco3)c(-c3ccc(NC(=O)Nc4cccc(OC(F)(F)F)c4)cc3)c12 [Example 28, N-4-[4-amino-7-(morpholin-4-ylmethyl)-6-(1,3-oxazol-5-yl)pyrrolo[2,1-f][1,2,4]triazin-5-yl]phenyl-N′-[3-(trifluoromethoxy)-phenyl]urea]"
< 10,,"COCc1c(-c2ccc(NC(=O)Nc3cc(C(F)(F)F)ccc3F)c(F)c2)c2c(N)ncnn2c1CN1CCNC(=O)C1 [Example 44, N-(4-{4-amino-6-(methoxymethyl)-7-[(3-oxopiperazin-1-yl)methyl]pyrrolo[2,1-f][1,2,4]triazin-5-yl}-2-fluorophenyl)-N′-[2-fluoro-5-(trifluoromethyl)phenyl]urea]"
> 100,< 1000,CC(C)(O)c1c(-c2ccc(NC(=O)Nc3cc(C(F)(F)F)ccn3)cc2)c2c(N)ncnn2c1CN1CCOCC1 [Example 86]
> 100,< 1000,"COCc1c(-c2ccc(NC(=O)Nc3cc(C(F)(F)F)ccn3)cc2)c2c(N)ncnn2c1CN1CCC(F)(F)CC1 [Example 40, N-{4-[4-amino-7-[(4,4-difluoropiperidin-1-yl)methyl]-6-(methoxymethyl)pyrrolo[2,1-f][1,2,4]triazin-5-yl]phenyl}-N′-[4-(trifluoromethyl)pyridin-2-yl]urea]"
10 to 100,,"CCOC(=O)c1c(-c2ccc(NC(=O)Nc3cc(C(F)(F)F)ccn3)cc2)c2c(N)ncnn2c1-c1ccc(OC)cc1 [Example 4, ethyl 4-amino-7-(4-methoxyphenyl)-5-{4-[({[4-(trifluoromethyl)pyridin-2-yl]amino}carbonyl)amino]-phenyl}pyrrolo[2,1-f][1,2,4]triazine-6-carboxylate]"
10 to 100,,"COCc1c(-c2ccc(NC(=O)Nc3cc(C(F)(F)F)ccc3F)cc2)c2c(N)ncnn2c1CNC1CC1 [Example 16, N-{4-[4-amino-7-[(cyclopropylamino)methyl]-6-(methoxymethyl)pyrrolo[2,1-f][1,2,4]triazin-5-yl]phenyl}-N′-[2-fluoro-5-(trifluoromethyl)phenyl]urea]"
